“Also recorded” adds a separate entry of the source.
Key:
[1] = tested on: patients with schizophrenia or schizoaffective disorder; experiment: Serum analytes and EKG QTc interval at screening and final visit; same trial; format: in vivo, human; settings: for Serum LDL levels post-treatment compared to baseline: paired t-test p=0.002; for EKG QTc interval / Serum Cholesterol / Serum Glucose / Serum Prolactin / Serum TSH / Serum Triglycerides / Serum LDL / Serum HDL: mean ± SD; for Serum LDL: n = 7; for Serum HDL: n = 8
From the text: During the screening visit (Visit 1), patients received a physical exam, vital signs, and electrocardiogram (EKG), as well as baseline laboratory measures consisting of serum electrolytes, glucose, creatinine, blood urea nitrogen (chemistry 7 panel), liver function tests, complete blood count (CBC), urinalysis, urine toxicology test, thyroid stimulating hormone (TSH), and prolactin, and serum pregnancy test if female. These tests were also repeated at the completion of the study (Visit 6). In addition, patients received an interim EKG 4 weeks post-randomization, as well as a serum pregnancy test if female (Visit 4). Patients also received a chemistry 7 panel, CBC, and liver function tests at Visits 2, 3, 4, and 5 (i.e., at all study visits). Psychiatric symptoms were assessed at baseline using the Scale for the Assessment of Negative Symptoms (Andreasen, 1983), the Positive and Negative Symptom Scale (PANSS; Kay et al., 1987), the Calgary Depression Rating Scale (CDRS; Addington et al., 1990), the Clinical Global Impressions Improvement (CGI-I) and Severity (CGI-S) scales, the Barnes Akathisia Scale (BAS; Barnes, 1989), the Simpson Angus Scale for Extrapyramidal Symptoms (SAS; Simpson & Angus, 1970), the Quality of Life Scale (QOL; Heinrichs et al., 1984), and the Hillside Side Effects Scale. One research nurse with five years of experience in the conduction of schizophrenia clinical trials completed both psychiatric and cognitive assessments throughout the study, and was trained to one point of divergence on each PANSS item.

[2] = tested on: patients with schizophrenia or schizoaffective disorder; experiment: BACS cognitive battery; same 8-week adjunctive pregnenolone trial; format: in vivo, human; settings: for BACS Composite Z-score / BACS Digit Sequencing raw score / BACS Symbol Coding raw score / BACS Token Motor raw score / BACS Tower of London raw score / BACS Verbal Fluency raw score / BACS Verbal Memory raw score: mean, n = 9; for BACS Composite, difference PG vs placebo in Z-score change: not statistically significant (p=0.22)
Experimental: Study Design and Subjects. Disclosed herein is a placebo-controlled, double-blind, parallel group, randomized trial of adjunctive pregnenolone for the treatment of cognitive and negative symptoms in patients with schizophrenia or schizoaffective disorder. […] Patients received a total of 6 study visits, which took place every two weeks. […] The trial was conducted at a single site, the Durham Veterans Affairs Medical Center in Durham, N.C. The protocol was approved by the local institutional review board and conducted under FDA Investigational New Drug (IND) #71,768. The ClinicalTrials.gov number for this study is NCT00560937.
Cognitive symptoms were assessed by the Brief Assessment of Cognition in Schizophrenia (BAGS; Keefe et al., 2004; Keefe et al., 2008), and the MATRICS Consensus Cognitive Battery (Nuechterlein & Green, 2006; Nuechterlein et al., 2008). It is believed that no clinical trial to date has reported both of these cognitive assessments within the same study. The BAGS and MATRICS batteries were administered two weeks following the screening visit (following the completion of the two-week placebo lead-in phase at Visit 2), and at two 4-week intervals thereafter (at midpoint following randomization at Visit 4 and at the final visit (Visit 6).
The BAGS cognitive battery utilizes the following assessments in the respective targeted domains (Keefe et al., 2004; Keefe et al., 2008): list learning (verbal memory), digit sequencing task (working memory), token motor task (motor speed), verbal fluency (processing speed), symbol coding (attention and processing speed), and the Tower of London test (executive functions/reasoning and problem solving). The MATRICS cognitive battery utilizes the following assessments: Trail Making Test, Part A and the symbol coding subtest of the BAGS (both assess speed of processing), the Hopkins Verbal Learning Test-Revised, immediate recall (three learning trials only) [verbal learning], the Wechsler Memory Scale, 3rd ed., spatial span subtest (working memory, nonverbal), the Letter-Number Span test (working memory, verbal), the Neuropsychological Assessment Battery, mazes subtest (reasoning and problem solving), the Brief Visuospatial Memory Test-Revised (visual learning), the Category Fluency Test (animal naming) [speed of processing], the Mayer-Salovey-Caruso Emotional Intelligence Test, managing emotions branch (social cognition), and the Continuous Performance Test, Identical Pairs version (attention/vigilance) Of note, the symbol coding subtest of the BAGS was administered only once per visit at Visits 2, 4, and 6, although it is a component of both the BAGS and MATRICS cognitive batteries, in order to avoid potentially confounding practice effects.

humans = settings: cited from earlier work
[3] = tested on: subjects with mild traumatic brain injury (TBI); experiment: Total cholesterol in mild TBI subjects, pregnenolone 8 weeks (100, 300, then 500 mg/day oral) versus placebo; format: in vivo, human; settings: baseline to study completion (8 weeks), t-test of change scores p=0.035, FIG. 3
From the text: Ten (10) additional subjects with mild TBI were given a placebo.

[4] = Week 0 to Week 8, listed as pregnenolone

## CC(=O)[C@H]1CC[C@H]2[C@@H]3CC=C4C[C@@H](O)CC[C@]4(C)[C@H]3CC[C@]12C [PG, pregnenolone]
[1]; 8 weeks of pregnenolone
  EKG QTc interval following treatment: no change
  Laboratory parameters including glucose, triglycerides, HDL, TSH, and prolactin, post-treatment compared to baseline: no significant changes
[1]; 8 weeks of pregnenolone, listed as Pregnenolone
  Serum LDL levels post-treatment compared to baseline: significantly decreased
[1]; 8 weeks of pregnenolone, listed as pregnenolone
  Serum LDL levels post-treatment compared to baseline: significantly reduced; also recorded: significantly decreased
[1]; 8 weeks of pregnenolone, paired t-test p=0.008
  Cholesterol levels following treatment compared to baseline: significantly decreased
[1]; Screening
  EKG QTc interval: 414.8 ± 19.2 ms
  Serum Cholesterol: 185.8 ± 43.3 mg/100 ml
  Serum Glucose: 117.9 ± 36.2 mg/100 ml
  Serum Prolactin: 7.69 ± 5.91 ng/mL
  Serum TSH: 1.45 ± 0.64 μIU/ml
  Serum Triglycerides: 194.3 ± 87.8 mg/100 ml
  Serum LDL: 119.1 ± 26.0 mg/100 ml
  Serum HDL: 39.3 ± 16.5 mg/100 ml
[1]; Week 8
  EKG QTc interval: 406.8 ± 20.9 ms
  Serum Glucose: 119.0 ± 33.5 mg/100 ml
  Serum Prolactin: 7.85 ± 6.47 ng/mL
  Serum TSH: 1.26 ± 0.72 μIU/ml
  Serum Triglycerides: 237.6 ± 119.5 mg/100 ml
  Serum HDL: 37.0 ± 17.4 mg/100 ml
[1]; Week 8, p 0.002 vs screening
  Serum LDL: 90.9 ± 29.4 mg/100 ml
[1]; Week 8, p 0.008 vs screening
  Serum Cholesterol: 166.6 ± 36.2 mg/100 ml
[1]; during the 8-week trial
  Glucose levels, serum electrolyte panels, thyroid stimulating hormone, prolactin levels, and liver function tests: unchanged
[2]; Week 0 (baseline)
  BACS Composite Z-score: −1.54
  BACS Digit Sequencing raw score: 15.78
  BACS Symbol Coding raw score: 36.89
  BACS Token Motor raw score: 46.44
  BACS Tower of London raw score: 13.22
  BACS Verbal Fluency raw score: 45.78
  BACS Verbal Memory raw score: 36.78
[2]; Week 0 to Week 8
  BACS Composite, change in Z-score: 0.60
  BACS Digit Sequencing, change in Z-score: 0.50
  BACS Digit Sequencing, difference PG vs placebo in Z-score change: 0.25 ± 0.29
  BACS Symbol Coding, change in Z-score: 0.11
  BACS Symbol Coding, difference PG vs placebo in Z-score change: −0.16 ± 0.24
  BACS Token Motor, change in Z-score: 0.40
  BACS Token Motor, difference PG vs placebo in Z-score change: 0.42 ± 0.66
  BACS Tower of London, change in Z-score: 0.82±
  BACS Tower of London, difference PG vs placebo in Z-score change: 0.61 ± 0.80
  BACS Verbal Fluency, change in Z-score: −0.05
  BACS Verbal Fluency, difference PG vs placebo in Z-score change: −0.06 ± 0.32
  BACS Verbal Memory, change in Z-score: 0.83
  BACS Verbal Memory, difference PG vs placebo in Z-score change: 0.61 ± 0.38
  BACS Composite, difference PG vs placebo in Z-score change: 0.38 ± 0.30
[2]; [4]
  BACS Composite, change in Z-score: 0.60±0.78
  BACS Digit Sequencing, difference PG vs placebo in Z-score change: 0.25
  BACS Token Motor, difference PG vs placebo in Z-score change: 0.42
  BACS Tower of London, difference PG vs placebo in Z-score change: 0.61
  BACS Verbal Memory, difference PG vs placebo in Z-score change: 0.61
  BACS Composite, difference PG vs placebo in Z-score change: approximately 0.4
[2]; Week 4
  BACS Composite Z-score: −1.04
  BACS Digit Sequencing raw score: 17.22
  BACS Symbol Coding raw score: 44.78
  BACS Token Motor raw score: 55.56
  BACS Tower of London raw score: 15.22
  BACS Verbal Fluency raw score: 45.11
  BACS Verbal Memory raw score: 39.00
[2]; Week 8
  BACS Composite Z-score: −0.93
  BACS Digit Sequencing raw score: 18.44
  BACS Symbol Coding raw score: 38.67
  BACS Token Motor raw score: 52.22
  BACS Tower of London raw score: 16.22
  BACS Verbal Fluency raw score: 45.22
  BACS Verbal Memory raw score: 43.78
humans; 15-30 mg/day, no significant side effects compared to placebo, Meieran et al., 2004
  Tolerability in healthy volunteers: generally well-tolerated
humans; 25-500 mg/day, studies of the 1940s and 1950s
  Safety and tolerability in humans: safe and well-tolerated
[3]
  Total cholesterol (percent change) compared to placebo: statistically significant reduction
[3]; listed as pregnenolone
  Total cholesterol (percent change) compared to placebo: reduced
